Source: patent US9868772B2 (INDIANA UNIVERSITY RESEARCH AND TECHNOLOGY CORPORATION, priority 2012, dated 2018)
Numbered stars: 1 amine (or outer) side, 2 acyl side, 3 side chain; on linkers, the order of the positions; unused ones are H or OH. Square brackets hold non-standard residues; d marks the D form. Side chains are listed from the residue outwards. Peptide text beside a SMILES is read from it. * marks the point of attachment. γGlu = O=C(O)[C@H](CCC(=O)[*:2])N[*:1]; Desaminohistidyl = O=C(CCc1c[nH]cn1)*; Palmitoyl = CCCCCCCCCCCCCCCC(=O)*

Assays:
Experiment in all cases: cAMP induction, firefly luciferase reporter assay in HEK293 cells co-transfected with receptor
Format in all cases: cell-based
GIP receptor = biological target: T1, GIP receptor (Homo sapiens, UniProt P48546)
T1 construct: expressed in transfected cells; host or cells: HEK293
T1 sequence (P48546 22-466): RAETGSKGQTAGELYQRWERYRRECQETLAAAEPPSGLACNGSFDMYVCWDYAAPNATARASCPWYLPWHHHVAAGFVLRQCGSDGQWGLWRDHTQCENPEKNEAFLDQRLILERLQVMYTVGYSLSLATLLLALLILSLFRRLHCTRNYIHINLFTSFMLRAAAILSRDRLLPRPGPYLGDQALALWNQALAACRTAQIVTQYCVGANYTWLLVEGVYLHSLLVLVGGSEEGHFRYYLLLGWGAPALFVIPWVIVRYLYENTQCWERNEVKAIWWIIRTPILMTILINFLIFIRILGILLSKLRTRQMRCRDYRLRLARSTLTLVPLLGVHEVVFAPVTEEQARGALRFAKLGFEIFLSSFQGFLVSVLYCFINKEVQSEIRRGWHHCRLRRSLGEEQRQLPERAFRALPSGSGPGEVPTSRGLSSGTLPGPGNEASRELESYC
Protocol: (§1) The ability of glucagon analogs to induce cAMP was measured in a firefly luciferase-based reporter assay. […] At the end of the incubation 100 microliters of LucLite luminescence substrate reagent (Perkin-Elmer, Wellesley, Mass.) were added to each well. […] Effective 50% concentrations were calculated by using Origin software (OriginLab, Northampton, Mass.

GLP-1 receptor = biological target: T2, GLP-1 receptor (Homo sapiens, UniProt P43220)
T2 construct: expressed in transfected cells; host or cells: HEK293
T2 sequence (P43220 24-463): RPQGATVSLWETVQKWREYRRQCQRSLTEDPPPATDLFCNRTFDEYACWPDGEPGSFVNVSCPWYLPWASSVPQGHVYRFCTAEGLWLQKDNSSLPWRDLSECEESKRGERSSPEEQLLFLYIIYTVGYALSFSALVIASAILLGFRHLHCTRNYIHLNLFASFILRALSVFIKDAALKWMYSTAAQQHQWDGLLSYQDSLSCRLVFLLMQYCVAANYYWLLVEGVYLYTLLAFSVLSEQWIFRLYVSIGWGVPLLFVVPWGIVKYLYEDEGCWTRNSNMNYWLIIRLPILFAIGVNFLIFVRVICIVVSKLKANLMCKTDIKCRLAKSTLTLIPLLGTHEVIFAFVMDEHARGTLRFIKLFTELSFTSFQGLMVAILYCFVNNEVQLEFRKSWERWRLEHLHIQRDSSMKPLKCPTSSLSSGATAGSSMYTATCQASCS
Protocol: as §1

glucagon receptor = biological target: T3, glucagon receptor (Homo sapiens, UniProt P47871)
T3 construct: expressed in transfected cells; host or cells: HEK293
T3 sequence (P47871 26-477): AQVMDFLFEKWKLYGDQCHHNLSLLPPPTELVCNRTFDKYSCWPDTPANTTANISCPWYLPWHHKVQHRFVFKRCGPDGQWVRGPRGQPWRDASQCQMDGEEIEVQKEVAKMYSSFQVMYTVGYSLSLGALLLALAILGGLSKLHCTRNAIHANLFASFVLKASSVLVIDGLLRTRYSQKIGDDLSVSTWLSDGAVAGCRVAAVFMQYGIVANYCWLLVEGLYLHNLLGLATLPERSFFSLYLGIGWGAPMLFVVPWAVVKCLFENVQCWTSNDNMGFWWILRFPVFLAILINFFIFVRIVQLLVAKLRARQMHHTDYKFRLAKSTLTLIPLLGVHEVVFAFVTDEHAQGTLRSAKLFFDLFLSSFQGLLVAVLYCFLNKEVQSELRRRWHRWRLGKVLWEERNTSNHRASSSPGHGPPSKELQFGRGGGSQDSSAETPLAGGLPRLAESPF
Protocol: as §1

[1] = Table 1, analogs of SEQ ID NO: 37
[2] = Table 3, analogs of SEQ ID NO: 12
[3] = Table 2, analogs of SEQ ID NO: 10

Row | Compound | EC50 (GIP receptor; [1]) [nM] | EC50 (GLP-1 receptor; [1]) [nM] | EC50 (glucagon receptor; [1]) [nM] | other results
1 | CCCCCCCCCCCCCCCC(=O)N[C@@H](CCC(=O)NCCCC[C@H](NC(=O)[C@H](CC(=O)O)NC(=O)[C@H](CO)NC(=O)[C@@H](NC(=O)[C@H](Cc1ccccc1)NC(=O)[C@@H](NC(=O)CNC(=O)[C@H](CCC(N)=O)NC(=O)[C@H](C)NC(=O)[C@H](Cc1cccs1)NC(C)=O)[C@@H](C)O)[C@@H](C)O)C(=O)N[C@@H](CO)C(=O)N[C@@H](CCCCN)C(=O)N[C@@H](Cc1ccc(O)cc1)C(=O)N[C@@H](CC(C)C)C(=O)N[C@@H](CC(=O)O)C(=O)N[C@@H](CCC(=O)O)C(=O)N[C@@H](CCCNC(=N)N)C(=O)N[C@@H](C)C(=O)N[C@@H](C)C(=O)N[C@@H](CCC(N)=O)C(=O)N[C@@H](CC(=O)O)C(=O)N[C@@H](Cc1ccccc1)C(=O)N[C@H](C(=O)N[C@@H](CCC(N)=O)C(=O)N[C@@H](Cc1c[nH]c2ccccc12)C(=O)N[C@@H](CC(C)C)C(=O)N[C@@H](CC(C)C)C(=O)N[C@@H](CCC(=O)O)C(=O)NCC(=O)NCC(=O)N1CCC[C@H]1C(=O)N[C@@H](CO)C(=O)N[C@@H](CO)C(=O)NCC(=O)N[C@@H](C)C(=O)N1CCC[C@H]1C(=O)N1CCC[C@H]1C(=O)N1CCC[C@H]1C(=O)N[C@@H](CO)C(N)=O)C(C)C)C(=O)O [compound 21] | 0.04 | 0.026 | 0.006 | –
2 | CCCCCCCCCCCCCCCC(=O)N[C@@H](CCC(=O)NCCCC[C@H](NC(=O)[C@H](CC(=O)O)NC(=O)[C@H](CO)NC(=O)[C@@H](NC(=O)[C@H](Cc1ccccc1)NC(=O)[C@@H](NC(=O)CNC(=O)[C@H](CCC(N)=O)NC(=O)[C@H](C)NC(=O)[C@@H](Cc1ccc(O)cc1)NC(C)=O)[C@@H](C)O)[C@@H](C)O)C(=O)N[C@@H](CO)C(=O)N[C@@H](CCCCN)C(=O)N[C@@H](Cc1ccc(O)cc1)C(=O)N[C@@H](CC(C)C)C(=O)N[C@@H](CC(=O)O)C(=O)N[C@@H](CCC(=O)O)C(=O)N[C@@H](CCCNC(=N)N)C(=O)N[C@@H](C)C(=O)N[C@@H](C)C(=O)N[C@@H](CCC(N)=O)C(=O)N[C@@H](CC(=O)O)C(=O)N[C@@H](Cc1ccccc1)C(=O)N[C@H](C(=O)N[C@@H](CCC(N)=O)C(=O)N[C@@H](Cc1c[nH]c2ccccc12)C(=O)N[C@@H](CC(C)C)C(=O)N[C@@H](CC(C)C)C(=O)N[C@@H](CC(=O)O)C(=O)N[C@@H](CC(C)C)C(=O)NCC(=O)N1CCC[C@H]1C(=O)N[C@@H](CO)C(=O)N[C@@H](CO)C(=O)NCC(=O)N[C@@H](C)C(=O)N1CCC[C@H]1C(=O)N1CCC[C@H]1C(=O)N1CCC[C@H]1C(=O)N[C@@H](CO)C(N)=O)C(C)C)C(=O)O [compound 153] (Ac-[dY]AQGTFTSDK([γGlu-Palmitoyl])SKYLDERAAQDFVQWLLDLGPSSGAPPPS-NH2) | – | – | – | EC50 (GIP receptor; [2]): 0.018 nM; EC50 (GLP-1 receptor; [2]): 0.017 nM; EC50 (glucagon receptor; [2]): 0.021 nM
3 | CCCCCCCCCCCCCCCC(=O)N[C@@H](CCC(=O)NCCCC[C@H](NC(=O)[C@H](CC(=O)O)NC(=O)[C@H](CO)NC(=O)[C@@H](NC(=O)[C@H](Cc1ccccc1)NC(=O)[C@@H](NC(=O)CNC(=O)[C@H](CC(C)C)NC(=O)[C@H](C)NC(=O)[C@@H](Cc1ccc(O)cc1)NC(C)=O)[C@@H](C)O)[C@@H](C)O)C(=O)N[C@@H](CO)C(=O)N[C@@H](CCCCN)C(=O)N[C@@H](Cc1ccc(O)cc1)C(=O)N[C@@H](CC(C)C)C(=O)N[C@@H](CC(=O)O)C(=O)N[C@@H](CCC(=O)O)C(=O)N[C@@H](CCCNC(=N)N)C(=O)N[C@@H](C)C(=O)N[C@@H](C)C(=O)N[C@@H](CCC(N)=O)C(=O)N[C@@H](CC(=O)O)C(=O)N[C@@H](Cc1ccccc1)C(=O)N[C@H](C(=O)N[C@@H](CCC(N)=O)C(=O)N[C@@H](Cc1c[nH]c2ccccc12)C(=O)N[C@@H](CC(C)C)C(=O)N[C@@H](CC(C)C)C(=O)N[C@@H](CCC(=O)O)C(=O)NCC(=O)NCC(=O)N1CCC[C@H]1C(=O)N[C@@H](CO)C(=O)N[C@@H](CO)C(=O)NCC(=O)N[C@@H](C)C(=O)N1CCC[C@H]1C(=O)N1CCC[C@H]1C(=O)N1CCC[C@H]1C(=O)N[C@@H](CO)C(N)=O)C(C)C)C(=O)O [compound 142] (Ac-[dY]ALGTFTSDK([γGlu-Palmitoyl])SKYLDERAAQDFVQWLLEGGPSSGAPPPS-NH2) | – | – | – | EC50 (GIP receptor; [3]): 0.002 nM; EC50 (GLP-1 receptor; [3]): 0.005 nM; EC50 (glucagon receptor; [3]): 0.103 nM
4 | CCCCCCCCCCCCCCCC(=O)N[C@@H](CCC(=O)NCCCC[C@H](NC(=O)[C@H](CC(=O)O)NC(=O)[C@H](CO)NC(=O)[C@@H](NC(=O)[C@H](Cc1ccccc1)NC(=O)[C@@H](NC(=O)CNC(=O)[C@H](CCC(N)=O)NC(=O)[C@H](C)NC(=O)[C@@H](Cc1ccc(O)cc1)NC(C)=O)[C@@H](C)O)[C@@H](C)O)C(=O)N[C@@H](CO)C(=O)N[C@@H](CCCCN)C(=O)N[C@@H](Cc1ccc(O)cc1)C(=O)N[C@@H](CC(C)C)C(=O)N[C@@H](CC(=O)O)C(=O)N[C@@H](CCC(=O)O)C(=O)N[C@@H](CCCNC(=N)N)C(=O)N[C@@H](C)C(=O)N[C@@H](C)C(=O)N[C@@H](CCC(N)=O)C(=O)N[C@@H](CC(=O)O)C(=O)N[C@@H](Cc1ccccc1)C(=O)N[C@H](C(=O)N[C@@H](CCC(N)=O)C(=O)N[C@@H](Cc1c[nH]c2ccccc12)C(=O)N[C@@H](CC(C)C)C(=O)N[C@@H](CC(C)C)C(=O)N[C@@H](CCC(=O)O)C(=O)NCC(=O)NCC(=O)N1CCC[C@H]1C(=O)N[C@@H](CO)C(=O)N[C@@H](CO)C(=O)NCC(=O)N[C@@H](C)C(=O)N1CCC[C@H]1C(=O)N1CCC[C@H]1C(=O)N1CCC[C@H]1C(=O)N[C@@H](CO)C(N)=O)C(C)C)C(=O)O [compound 12] | 0.002 | 0.003 | 0.007 | –
5 | CCCCCCCCCCCCCCCC(=O)N[C@@H](CCC(=O)NCCCC[C@H](NC(=O)[C@H](CC(=O)O)NC(=O)[C@H](CO)NC(=O)[C@@H](NC(=O)[C@H](Cc1ccccc1)NC(=O)[C@@H](NC(=O)CNC(=O)[C@H](CCC(N)=O)NC(=O)[C@@H]1CCCN1C(=O)[C@H](N)Cc1c[nH]cn1)[C@@H](C)O)[C@@H](C)O)C(=O)N[C@@H](CO)C(=O)N[C@@H](CCCCN)C(=O)N[C@@H](Cc1ccc(O)cc1)C(=O)N[C@@H](CC(C)C)C(=O)N[C@@H](CC(=O)O)C(=O)N[C@@H](CCC(=O)O)C(=O)N[C@@H](CCCNC(=N)N)C(=O)N[C@@H](C)C(=O)N[C@@H](C)C(=O)N[C@@H](CCC(N)=O)C(=O)N[C@@H](CC(=O)O)C(=O)N[C@@H](Cc1ccccc1)C(=O)N[C@H](C(=O)N[C@@H](CCC(N)=O)C(=O)N[C@@H](Cc1c[nH]c2ccccc12)C(=O)N[C@@H](CC(C)C)C(=O)N[C@@H](CC(C)C)C(=O)N[C@@H](CCC(=O)O)C(=O)NCC(=O)NCC(=O)N1CCC[C@H]1C(=O)N[C@@H](CO)C(=O)N[C@@H](CO)C(=O)NCC(=O)N[C@@H](C)C(=O)N1CCC[C@H]1C(=O)N1CCC[C@H]1C(=O)N1CCC[C@H]1C(=O)N[C@@H](CO)C(N)=O)C(C)C)C(=O)O [compound 27] (H-[dH]PQGTFTSDK([γGlu-Palmitoyl])SKYLDERAAQDFVQWLLEGGPSSGAPPPS-NH2; N-terminus assumed) | 0.08 | 0.003 | 0.034 | –
6 | CCCCCCCCCCCCCCCC(=O)N[C@@H](CCC(=O)NCCCC[C@H](NC(=O)[C@H](CC(=O)O)NC(=O)[C@H](CO)NC(=O)[C@@H](NC(=O)[C@H](Cc1ccccc1)NC(=O)[C@@H](NC(=O)CNC(=O)[C@H](CCC(N)=O)NC(=O)CNC(=O)CCc1c[nH]cn1)[C@@H](C)O)[C@@H](C)O)C(=O)N[C@@H](CO)C(=O)N[C@@H](CCCCN)C(=O)N[C@@H](Cc1ccc(O)cc1)C(=O)N[C@@H](CC(C)C)C(=O)N[C@@H](CC(=O)O)C(=O)N[C@@H](CCC(=O)O)C(=O)N[C@@H](CCCNC(=N)N)C(=O)N[C@@H](C)C(=O)N[C@@H](C)C(=O)N[C@@H](CCC(N)=O)C(=O)N[C@@H](CC(=O)O)C(=O)N[C@@H](Cc1ccccc1)C(=O)N[C@H](C(=O)N[C@@H](CCC(N)=O)C(=O)N[C@@H](Cc1c[nH]c2ccccc12)C(=O)N[C@@H](CC(C)C)C(=O)N[C@@H](CC(C)C)C(=O)N[C@@H](CCC(=O)O)C(=O)NCC(=O)NCC(=O)N1CCC[C@H]1C(=O)N[C@@H](CO)C(=O)N[C@@H](CO)C(=O)NCC(=O)N[C@@H](C)C(=O)N1CCC[C@H]1C(=O)N1CCC[C@H]1C(=O)N1CCC[C@H]1C(=O)N[C@@H](CO)C(N)=O)C(C)C)C(=O)O [compound 31] (Desaminohistidyl-GQGTFTSDK([γGlu-Palmitoyl])SKYLDERAAQDFVQWLLEGGPSSGAPPPS-NH2) | 0.226 | 0.003 | 0.022 | –
